What was measured:
Assay in all cases: relative viability (nuclei count vs DMSO), 5 days (fraction); higher = more cells survive
KN-93 + OSI-027 = compound: CN(C/C=C/C1=CC=C(C=C1)Cl)CC2=CC=CC=C2N(CCO)S(=O)(=O)C3=CC=C(C=C3)OC [KN-93] + COc1cccc2cc(-c3nc([C@H]4CC[C@H](C(=O)O)CC4)n4ncnc(N)c34)[nH]c12 [OSI-027] (partner 0.5 µM)
In short: (§1)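 Cells from lung cancer lines were seeded into 1536-well plates and, one day later, dosed by pin tool. Treatments were either a single drug or a fixed dose of an anchor drug with five library-drug doses (not always all listed) in √10 steps. After 5 days, nuclei were stained in a one-step fixation (final 0.05% Triton X-100, 1% formaldehyde, 1 ug/ml Hoechst) and counted on 4× images, and relative viability is the treated-to-vehicle nuclei ratio, as the median of duplicate plates.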

KN-93 + Foretinib = compound: CN(C/C=C/C1=CC=C(C=C1)Cl)CC2=CC=CC=C2N(CCO)S(=O)(=O)C3=CC=C(C=C3)OC [KN-93] + COc1cc2c(Oc3ccc(NC(=O)C4(C(=O)Nc5ccc(F)cc5)CC4)cc3F)ccnc2cc1OCCCN1CCOCC1 [Foretinib] (partner 0.25 µM)
In short: as §1

KN-93 + Alpelisib = compound: CN(C/C=C/C1=CC=C(C=C1)Cl)CC2=CC=CC=C2N(CCO)S(=O)(=O)C3=CC=C(C=C3)OC [KN-93] + Cc1nc(NC(=O)N2CCC[C@H]2C(N)=O)sc1-c1ccnc(C(C)(C)C(F)(F)F)c1 [Alpelisib] (partner 2 µM)
In short: as §1

KN-93 + Decitabine = compound: CN(C/C=C/C1=CC=C(C=C1)Cl)CC2=CC=CC=C2N(CCO)S(=O)(=O)C3=CC=C(C=C3)OC [KN-93] + Nc1ncn([C@H]2C[C@H](O)[C@@H](CO)O2)c(=O)n1 [Decitabine] (partner 2 µM)
In short: as §1

KN-93 + Luminespib = compound: CN(C/C=C/C1=CC=C(C=C1)Cl)CC2=CC=CC=C2N(CCO)S(=O)(=O)C3=CC=C(C=C3)OC [KN-93] + CCNC(=O)c1noc(-c2cc(C(C)C)c(O)cc2O)c1-c1ccc(CN2CCOCC2)cc1 [Luminespib] (partner 0.01 µM)
In short: as §1

Cell Line	relative viability (KN-93 + OSI-027; first compound 0.08 µM)	relative viability (KN-93 + OSI-027; first compound 0.253 µM)	relative viability (KN-93 + OSI-027; first compound 2.53 µM)	relative viability (KN-93 + OSI-027; first compound 8 µM)	relative viability (KN-93 + Foretinib; first compound 0.08 µM)	relative viability (KN-93 + Foretinib; first compound 0.253 µM)	relative viability (KN-93 + Foretinib; first compound 2.53 µM)	relative viability (KN-93 + Foretinib; first compound 8 µM)	relative viability (KN-93 + Alpelisib; first compound 0.08 µM)	relative viability (KN-93 + Alpelisib; first compound 0.253 µM)	relative viability (KN-93 + Alpelisib; first compound 2.53 µM)	relative viability (KN-93 + Alpelisib; first compound 8 µM)	relative viability (KN-93 + Decitabine; first compound 0.08 µM)	relative viability (KN-93 + Decitabine; first compound 0.253 µM)	relative viability (KN-93 + Decitabine; first compound 2.53 µM)	relative viability (KN-93 + Decitabine; first compound 8 µM)	relative viability (KN-93 + Luminespib; first compound 0.08 µM)	relative viability (KN-93 + Luminespib; first compound 0.253 µM)	relative viability (KN-93 + Luminespib; first compound 2.53 µM)	relative viability (KN-93 + Luminespib; first compound 8 µM)
EPLC-272H	0.218	0.295	0.297	0.219	0.621	0.762	0.573	0.389	0.947	1.02	1.04	0.792	0.372	0.368	0.383	0.309	0.438	0.183	0.266	0.173
RERF-LC-KJ	0.557	0.509	0.588	0.353	0.791	0.778	1.05	0.833	0.682	0.754	0.766	0.634	0.627	0.753	0.722	0.346	1.21	1.51	1.16	0.559
EKVX	0.536	0.75	0.743	0.552	0.849	0.758	0.911	0.22	0.728	0.845	1.02	0.692	0.332	0.289	0.342	0.319	0.998	0.977	0.895	0.714
LK-2	0.207	0.182	0.189	0.165	1.16	1.58	1.48	1.15	0.905	1.51	1.32	0.673	0.276	0.293	0.315	0.278	0.225	0.176	0.212	0.174
NCI-H596	0.769	0.726	0.755	0.252	0.862	0.989	0.886	0.532	0.442	0.459	0.51	0.334	1.03	1.19	1.08	0.824	0.924	1.34	1.21	0.789
NCI-H322M	0.535	0.577	0.539	0.411	0.959	0.933	0.984	0.762	0.873	1.06	0.836	0.686	0.733	0.725	0.69	0.699	0.921	0.793	0.954	0.752
NCI-H1651	0.588	0.73	0.749	0.423	0.669	0.845	0.886	0.582	1.05	1.23	1.3	0.624	0.594	0.597	0.623	0.534	0.757	0.829	0.757	0.546
IA-LM	–	–	–	–	–	1.36	1.3	0.926	0.765	0.746	0.773	0.778	–	–	–	–	–	–	–	–
NCI-H1734	0.53	0.574	0.605	0.404	0.72	0.847	0.734	0.585	0.718	0.712	0.746	0.533	0.465	0.596	0.502	0.442	0.167	0.17	0.181	0.179
SK-MES-1	0.517	0.547	0.605	0.415	0.857	0.656	0.937	0.999	0.737	0.977	0.864	0.862	0.389	0.357	0.371	0.355	0.899	0.69	0.728	0.286
201T	0.789	0.558	0.884	0.373	1.06	0.711	1.08	0.566	1.17	0.966	1.01	0.935	0.866	0.887	0.758	0.583	1.04	1.16	0.958	0.697
ChaGo-K-1	0.585	0.512	0.449	0.426	0.866	0.981	0.832	0.669	–	–	–	–	0.559	0.528	0.541	0.457	0.589	0.712	0.699	0.462
HCC-366	0.758	0.696	0.894	0.235	0.909	1.02	0.796	0.379	–	0.394	0.507	0.172	0.333	0.333	0.307	0.299	–	–	–	–
NCI-H460	0.863	0.825	0.603	0.223	0.715	1.06	1.02	0.591	0.47	0.649	0.42	0.203	0.282	0.409	0.579	0.46	0.0407	0.0268	0.0273	0.0309
NCI-H1355	0.405	0.295	0.41	0.246	0.879	0.984	1.03	0.868	0.731	0.719	0.946	0.697	0.367	0.298	0.317	0.315	0.616	0.636	0.574	0.552
EMC-BAC-2	0.373	0.355	0.389	0.337	0.962	1.05	0.938	0.752	0.683	0.732	0.928	0.676	0.996	0.98	0.969	0.693	1.07	1.27	1.18	0.901
A-427	0.507	0.621	0.462	0.265	1.06	1.11	1.04	0.807	1.07	1.18	1.08	0.975	0.579	0.511	0.546	0.496	1.16	1.2	0.866	0.307

Cell Line	relative viability (KN-93 + OSI-027; first compound 0.08 µM)	relative viability (KN-93 + OSI-027; first compound 0.253 µM)	relative viability (KN-93 + OSI-027; first compound 2.53 µM)	relative viability (KN-93 + OSI-027; first compound 8 µM)	relative viability (KN-93 + Foretinib; first compound 0.08 µM)	relative viability (KN-93 + Foretinib; first compound 0.253 µM)	relative viability (KN-93 + Foretinib; first compound 2.53 µM)	relative viability (KN-93 + Foretinib; first compound 8 µM)	relative viability (KN-93 + Alpelisib; first compound 0.08 µM)	relative viability (KN-93 + Alpelisib; first compound 0.253 µM)	relative viability (KN-93 + Alpelisib; first compound 2.53 µM)	relative viability (KN-93 + Alpelisib; first compound 8 µM)	relative viability (KN-93 + Decitabine; first compound 0.08 µM)	relative viability (KN-93 + Decitabine; first compound 0.253 µM)	relative viability (KN-93 + Decitabine; first compound 2.53 µM)	relative viability (KN-93 + Decitabine; first compound 8 µM)	relative viability (KN-93 + Luminespib; first compound 0.08 µM)	relative viability (KN-93 + Luminespib; first compound 0.253 µM)	relative viability (KN-93 + Luminespib; first compound 2.53 µM)	relative viability (KN-93 + Luminespib; first compound 8 µM)
LCLC-103H	0.446	0.455	0.356	0.309	0.901	1.01	0.799	0.536	1	0.994	0.92	0.861	0.657	0.69	0.673	0.518	0.948	1.22	1.04	0.756
NCI-H2342	0.587	0.62	0.625	0.582	0.918	0.962	1.06	0.902	–	–	–	–	0.675	0.685	0.757	0.77	0.623	0.686	0.913	0.634
NCI-H1793	0.242	0.245	0.261	0.152	0.729	0.799	0.642	0.287	–	0.851	0.624	0.542	0.595	0.494	0.465	0.43	0.193	0.179	0.195	0.166
LU99A	0.327	0.273	0.27	0.275	0.884	0.896	0.817	0.676	0.525	0.636	0.557	0.39	0.777	0.893	0.859	0.711	0.222	0.23	0.327	0.246
NCI-H358	0.74	0.653	0.831	0.421	0.519	0.733	0.64	0.335	0.843	0.992	0.72	0.319	0.212	0.207	0.198	0.184	0.289	0.53	0.273	0.266
NCI-H2085	0.733	0.639	0.806	0.597	1	0.994	1.05	0.664	0.993	1.07	0.985	0.749	0.581	0.502	0.516	0.496	0.441	0.371	0.441	0.356
NCI-H661	0.693	0.741	0.606	0.273	0.942	1.13	0.976	0.481	0.578	0.597	0.796	0.161	0.539	0.527	0.543	0.378	0.896	1.06	0.851	0.542
NCI-H1792	0.527	0.651	0.768	0.664	–	–	–	–	–	0.759	0.735	0.458	0.278	0.489	0.602	0.535	0.272	0.396	0.31	0.367
NCI-H1703	–	–	–	–	0.351	0.364	0.352	0.238	0.298	0.319	0.304	0.227	–	–	–	–	–	–	–	–
NCI-H1650	0.574	0.596	0.496	0.465	1.18	1.16	1.25	0.644	–	–	–	–	0.349	0.38	0.427	0.44	0.182	0.187	0.208	0.19
HCC-78	0.388	0.315	0.387	0.339	0.564	0.475	0.579	0.525	0.385	0.276	0.393	0.212	0.724	0.676	0.709	0.747	–	–	–	–
NCI-H1563	0.841	0.789	0.745	0.566	0.918	0.878	0.858	0.659	0.922	0.947	0.906	0.758	–	–	–	–	0.625	0.483	0.577	0.517
NCI-H522	0.824	0.746	0.801	0.558	–	–	–	–	–	–	–	–	0.699	0.625	0.7	0.707	1.28	1.4	1.39	1.11
HCC-44	0.547	0.482	0.555	0.391	–	–	–	–	0.775	0.746	0.99	0.549	1.05	0.929	1.03	0.915	1.28	1.01	1.12	0.752
NCI-H2228	0.55	0.443	0.567	0.237	0.872	0.891	0.862	0.506	0.704	0.553	0.722	0.236	–	–	–	–	0.174	0.126	0.163	0.134
SW 900	0.571	0.438	0.624	0.411	0.851	0.942	1.02	0.762	–	–	–	–	0.443	0.427	0.452	0.517	0.166	0.178	0.145	0.182
CAL-12T	0.718	0.59	0.657	0.434	1.01	1.27	1.09	0.565	0.859	1.44	1.57	1.06	–	–	–	–	0.208	0.27	0.573	0.336

— the supplement of paper PMC10307832
